Test results as given in patent US6399614B1, “1-(N-phenylaminoalkyl)piperazine derivatives substituted at position 2 of the phenyl ring” (Recordati S.A. Chemical and Pharmaceutical Company, priority 1997, dated 2002).

Target: T1, human 5-HT1A serotonergic receptor (Homo sapiens, UniProt P08908)
T1 construct: expressed in transfected cells; host or cells: HeLa
T1 sequence (P08908 1-422): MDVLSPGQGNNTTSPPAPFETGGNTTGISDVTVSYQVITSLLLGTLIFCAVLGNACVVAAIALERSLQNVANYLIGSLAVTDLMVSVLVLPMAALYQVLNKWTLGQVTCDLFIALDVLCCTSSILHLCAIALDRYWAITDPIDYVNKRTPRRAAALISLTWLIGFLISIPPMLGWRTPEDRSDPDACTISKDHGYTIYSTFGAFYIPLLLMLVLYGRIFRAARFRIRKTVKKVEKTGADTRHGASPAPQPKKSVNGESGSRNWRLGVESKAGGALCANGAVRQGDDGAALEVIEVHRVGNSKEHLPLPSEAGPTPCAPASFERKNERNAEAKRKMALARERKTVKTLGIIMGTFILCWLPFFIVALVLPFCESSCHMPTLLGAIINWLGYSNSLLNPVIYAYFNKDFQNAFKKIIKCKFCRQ
Assay: Radioreceptor binding, recombinant human 5-HT1A receptors ([3H]8-OH-DPAT, HeLa membranes)
Details: recombinant human receptor, [3H]8-OH-DPAT; Ki from IC50 by Cheng & Prusoff; read-out: Binding affinity for the 5-HT1A receptor, Ki
Protocol: Genomic clone G-21 coding for the human 5-HT1A serotonergic receptor is stably transfected in a human cell line (HeLa). HeLa cells were grown as monolayers in Dulbecco's modified Eagle's medium (DMEM), supplemented with 10% fetal calf serum and gentamicin ([…]), 5% CO2 at 37° C. Cells were detached from the growth flask at 95% confluence by a cell scraper and were lysed in ice-cold 5 mM Tris and 5 mM EDTA buffer (pH 7.4). Homogenates were centrifuged at 40000×g×20 min and pellets were resuspended in a small volume of ice-cold 5 mM Tris and 5 mM EDTA buffer (pH 7.4) and immediately frozen and stored at −70° C. until use. On the day of experiment, cell membranes were resuspended in binding buffer: 50 mM Tris HCl (pH 7.4), 2.5 mM MgCl2, 10 μM pargiline (Fargin et al., Nature 335, 358-360, 1988). Membranes were incubated in a final volume of 1 ml for 30 min at 30° C. with 0.2-1 nM [3H]8-OH-DPAT, in absence or presence of competing drugs; non-specific binding was determined in the presence of 10 μM 5-HT. The incubation was stopped by addition of ice-cold Tris-HCl buffer and rapid filtration through 0.2% polyethyleneimine pretreated Whatman GF/B or Schleicher & Schuell GF52 filters.
The inhibition of specific binding of the radioligands by the tested drugs was analyzed to estimate the IC50 value by using the non-linear curve-fitting program Allfit (De Lean et al., Am. J. Physiol. 235, E97-E102, 1978). The IC50 value was converted to an affinity constant (Ki) by the equation of Cheng & Prusoff (Cheng, Y. C.; Prusoff, W. H. Biochem. Pharmacol. 22, 3099-3108, 1973).

SMILES | Ki
COc1ccccc1N1CCN(CCN(C(=O)C2CCCCC2)c2ccccc2OC(F)(F)F)CC1 [Example 4, 1-[N-(2-trifluoromethoxyphenyl)-N-cyclohexylcarbonyl-2-aminoethyl]-4-(2-methoxyphenyl)piperazine] | 0.64 nM
COc1ccccc1N1CCN(CCN(C(=O)C2CCCCC2)c2ccccc2Oc2ccccc2)CC1 [Example 6, 1-[N-(2-phenoxyphenyl)-N-cyclohexylcarbonyl-2-aminoethyl]-4-(2-methoxyphenyl)piperazine] | 0.45 nM
COc1ccccc1N1CCN(CCN(C(=O)C2CCCCC2)c2ccccc2C(=O)NC(=O)C2CCCCC2)CC1 [Example 16, 1-[N-(2-cyclohexylcarbonylaminocarbonylphenyl)-N-cyclohexylcarbonyl-2-aminoethyl]-4-(2-methoxyphenyl)piperazine] | 2.9 nM
COc1ccccc1N1CCN(CCN(C(=O)C2CCCCC2)c2ccccc2C(=O)N(C)C)CC1 [Example 21, 1-[N-(2-dimethylaminocarbonylphenyl)-N-cyclohexylcarbonyl-2-aminoethyl]-4-(2-methoxyphenyl)piperazine.] | 2.72 nM
COc1ccccc1N1CCN(CCNc2ccccc2C(F)(F)F)CC1 [Example 22, 1-[N-(2-trifluoromethylphenyl)-2-aminoethyl]-4-(2-methoxyphenyl)piperazine] | 18.2 nM
CCNC(=O)c1ccccc1N(CCN1CCN(c2ccccc2OC)CC1)C(=O)C1CCCCC1 [Example 25, 1-[N-(2-ethylaminocarbonylphenyl)-N-cyclohexylcarbonyl-2-aminoethyl]-4-(2-methoxyphenyl)piperazine] | 8.91 nM
COc1ccccc1N1CCN(CCN(C(=O)C2CCCCC2)c2ccccc2C(F)(F)F)CC1 [Example 26, 1-[N-(2-trifluoromethylphenyl)-N-cyclohexylcarbonyl-2-aminoethyl]-4-(2-methoxyphenyl)piperazine.] | 2.69 nM
COc1ccccc1N1CCN(CCN(C(=O)C2CCCCC2)c2ccccc2NC(C)=O)CC1 [Example 28, 1-[N-(2-acetylaminophenyl)-N-cyclohexylcarbonyl-2-aminoethyl]-4-(2-methoxyphenyl)piperazine] | 18.8 nM
COc1ccccc1[N+]1([O-])CCN(CCN(C(=O)C2CCCCC2)c2ccccc2[N+](=O)[O-])CC1 [Example 30, 1-[N-(2-nitrophenyl)-N-cyclohexylcarbonyl-2-aminoethyl]-4-(2-methoxyphenyl)piperazine N^4-oxide] | 7.96 nM

The next lines start with the values.

Ki | SMILES
10.3 nM | COc1ccccc1N1CCN(CCNc2ccccc2OC(F)(F)F)CC1 [Example 3, 1-[N-(2-trifluoromethoxyphenyl)-2-aminoethyl]-4-(2-methoxyphenyl)piperazine]
14.8 nM | COc1ccccc1N1CCN(CCNc2ccccc2Oc2ccccc2)CC1 [Example 5, 1-[N-(2-phenoxyphenyl)-2-aminoethyl]-4-(2-methoxyphenyl)piperazine.3HCl]
3.82 nM | COc1ccccc1N1CCN(CCNc2ccccc2I)CC1 [Example 7, 1-[N-(2-iodophenyl)-2-aminoethyl]-4-(2-methoxyphenyl)piperazine]
4.77 nM | O=[N+]([O-])c1ccccc1NCCN1CCN(c2cccc3[nH]ccc23)CC1 [Example 12, 1-[N-(2-nitrophenyl)-2-aminoethyl]-4-(4-indolyl)piperazine]
10.3 nM | O=[N+]([O-])c1ccccc1NCCN1CCN(Cc2cc(Cl)ccc2Cl)CC1 [Example 14, 1-[N-(2-nitrophenyl)-2-aminoethyl)-4-(2,5-dichlorobenzyl)piperazine]
6.2 nM | O=C(C1CCCCC1)N(CCN1CCN(Cc2cc(Cl)ccc2Cl)CC1)c1ccccc1[N+](=O)[O-] [Example 15, 1-[N-(2-nitrophenyl)-N-cyclohexylcarbonyl-2-aminoethyl]-4-(2,5-dichlorobenzyl)piperazine]
20.2 nM | COC(=O)c1ccccc1NCCN1CCN(c2ccccc2OC)CC1 [Example 17, 1-[N-(2-methoxycarbonylphenyl)-2-aminoethyl]-4-(2-methoxyphenyl)piperazine]
